Test results reported in US20220117938A1, “COMBINATON THERAPY WITH A DON PRODRUG AND AN IMMUNE CHECKPOINT INHIBITOR” (DRACEN PHARMACEUTICALS, INC., priority 2019, published 2022).

Test system: CT26.WT tumors
Assay: Anti-tumor efficacy of Compound 1 with and without anti-PD-1 in the CT26.WT murine colorectal model (Example 2B)
Assay type: in vivo, Mus musculus
Settings: for Tumor volume (mm^3), Mean ± SEM: n = 8; for ILS (%) / MST: endpoint tumor volume 2000 mm^3; for RTV at day 15 / T/C (%) / TGI (%) / Tumor Size (mm^3) at day 15, Mean ± SEM: day 15
Experimental: Female BALB/c mice were inoculated subcutaneously at right flank with CT26.WT cells for tumor development. Five days after tumor inoculation, 48 mice with tumor size ranging from 39-61 mm^3 (average tumor size 49 mm^3) were selected and assigned into 6 groups using stratified randomization with 8 mice per group based upon their tumor volumes. The treatments were started from the day of randomization (defined as D0), Group 1 was treated with Vehicle (Tween 80:Ethanol:Saline—5:5:90 v/v/v), s.c. q.d.×14, Group 2 was treated with anti-PD-1 10 mg/kg i.p. q4d×4, Group 3 was treated with Compound 1 3 mg/kg s.c. q.d.×5D followed by 1 mg/kg s.c. q.d.×9D, Group 4 was treated with Compound 1 3 mg/kg s.c. q.d.×5D followed by 1 mg/kg s.c. q.d.×9D+anti-PD-1 10 mg/kg i.p. q4d×4, Group 5 was treated with Compound 1 1 mg/kg s.c. q.d.×14D and Group 6 was treated with Compound 1 1 mg/kg s.c. q.d.×14D+anti-PD-1 10 mg/kg i.p. q4d×4. The tumor sizes were measured three times per week during the treatment. The entire study was terminated on D64 after start of the treatment.
Animal Species: Mus musculus; Strain: BALB/c; Age: 6-8 weeks; Sex: female; Body weight (at treatment start): 20-24 g.
The CT26.WT tumor cells (ATCC, Cat #CRL-2638™) were maintained in vitro as a monolayer culture in RPMI 1640 medium supplemented with 10% heat inactivated fetal bovine serum, 100 U/mL penicillin and 100 μg/mL streptomycin, and L-glutamine (2 mM) at 37° C. in an atmosphere of 5% CO2 in air. The tumor cells were routinely subcultured twice weekly by trypsin-EDTA treatment. The cells growing to a confluency around 70%-80% were harvested and counted for tumor inoculation. The cultured CT26.WT cells were harvested, re-suspended in base medium with viability>90%. Each mouse was inoculated subcutaneously at the right flank with 3×10^5 in 0.05 ml base medium for tumor development.
The treatments were started on day 5 after tumor inoculation when the tumor size reached 39-61 mm^3 (average tumor size 49 mm^3). Each group consisted of 8 tumor bearing mice. The testing article was administrated at the dosing volume indicated to the mice according to the predetermined regimen as shown Table 2B-1. Testing article formulations were prepared according to standard procedures. Details regarding tumor measurements and endpoints, and statistical analysis are provided in EXAMPLE 3.
Tumor sizes were measured three times a week in two dimensions using a caliper, and the volume expressed in mm^3 using the formula: V=0.5 a×b^2 where a and b are the long and short diameters of the tumor, respectively. The tumor sizes were then used for the calculations of both tumor growth inhibition (TGI) and T/C values.
TGI is calculated for each group using the formula: […]
TVTreatment_DayN is the average tumor volume of a treatment group on a given day, TVTreatment_Day0 is the average tumor volume of the treatment group on the first day of treatment, TVVehicle_DayN is the average tumor volume of the vehicle control group on a given day, and TVVehicle_Day0 is the average tumor volume of the vehicle group on the first day of treatment.
The T/C value (in percent) is an indication of antitumor effectiveness, T/C (%)=RTVTreatment/RTVControl×100% (RTVTreatment: the mean RTV of the treatment group; RTVControl: the mean RTV of the vehicle treated group). RTV (relative tumor volume)=TVDayN/TVDay0. TVDayN and TVDay0 is the tumor volume on day N and Day 0 respectively. T/C (%)≤42% is considered as significant antitumor activity and <10% is considered as highly significant antitumor activity by the National Cancer Institute criteria.
Animal survival curve: When an individual animal reached to the termination endpoint (TV>2000 mm^3), the mouse was euthanized. The time from treatment initiation to the termination was deemed as its survival time. Survival curve was plotted by Kaplan-Meier method. Median survival time (MST) was calculated for each group. Increase of life span (ILS) was calculated according to the following formula: […]

CC(=O)N[C@@H](Cc1c[nH]c2ccccc12)C(=O)N[C@@H](CCC(=O)C=[N+]=[N-])C(=O)OC(C)C [Compound 1, Isopropyl (S)-2-((S)-2-acetamido-3-(1H-indol-3-yl)propanamido)-6-diazo-5-oxohexanoate]
Tumor volume (mm^3), Mean ± SEM (1 mg/kg qdx14 s.c., Day 0): 49 ± 2 mm^3
Tumor volume (mm^3), Mean ± SEM (1 mg/kg qdx14 s.c., Day 3): 68 ± 6 mm^3
Tumor volume (mm^3), Mean ± SEM (1 mg/kg qdx14 s.c., Day 6): 92 ± 8 mm^3
Tumor volume (mm^3), Mean ± SEM (1 mg/kg qdx14 s.c., Day 8): 104 ± 9 mm^3
Tumor volume (mm^3), Mean ± SEM (1 mg/kg qdx14 s.c., Day 10): 112 ± 9 mm^3
Tumor volume (mm^3), Mean ± SEM (1 mg/kg qdx14 s.c., Day 13): 156 ± 18 mm^3
Tumor volume (mm^3), Mean ± SEM (1 mg/kg qdx14 s.c., Day 15): 186 ± 21 mm^3
Tumor volume (mm^3), Mean ± SEM (3 mg/kg qdx5 then 1 mg/kg qdx9 s.c., Day 0): 49 ± 2 mm^3
Tumor volume (mm^3), Mean ± SEM (3 mg/kg qdx5 then 1 mg/kg qdx9 s.c., Day 3): 54 ± 2 mm^3
Tumor volume (mm^3), Mean ± SEM (3 mg/kg qdx5 then 1 mg/kg qdx9 s.c., Day 6): 65 ± 3 mm^3
Tumor volume (mm^3), Mean ± SEM (3 mg/kg qdx5 then 1 mg/kg qdx9 s.c., Day 8): 139 ± 14 mm^3
Tumor volume (mm^3), Mean ± SEM (3 mg/kg qdx5 then 1 mg/kg qdx9 s.c., Day 10): 180 ± 20 mm^3
Tumor volume (mm^3), Mean ± SEM (3 mg/kg qdx5 then 1 mg/kg qdx9 s.c., Day 13): 224 ± 25 mm^3
Tumor volume (mm^3), Mean ± SEM (3 mg/kg qdx5 then 1 mg/kg qdx9 s.c., Day 15): 333 ± 41 mm^3
ILS (%) (Compound 1 1 mg/kg): 40%
MST (Compound 1 1 mg/kg): 28 days
ILS (%) (Compound 1 3/1 mg/kg): 35%
MST (Compound 1 3/1 mg/kg): 27 days
RTV at day 15 (Cpd. 1 1 mg/kg): 3.84 ± 0.43
T/C (%) (Cpd. 1 1 mg/kg): 15.23%
TGI (%) (Cpd. 1 1 mg/kg): 188.18%
Tumor Size (mm^3) at day 15, Mean ± SEM (Cpd. 1 1 mg/kg): 186 ± 21 mm^3
RTV at day 15 (Cpd. 1 3/1 mg/kg): 4.79 ± 0.69
T/C (%) (Cpd. 1 3/1 mg/kg): 19.00%
TGI (%) (Cpd. 1 3/1 mg/kg): 84.90%
Tumor Size (mm^3) at day 15, Mean ± SEM (Cpd. 1 3/1 mg/kg): 224 ± 25 mm^3
